Here are results for 3 molecules from patent publication US20090176741A1, “MODULATION OF THE IMMUNE SYSTEM BY INOSITOL PHOSPHOLIPIDS” (priority 2006, published 2009).

For one data set, the system named is oxazolone colitis. Kind of data set: Oxazolone colitis model, intra-rectal PI. The data set is classed as in vivo, mice. The procedure: On day 0 male wild type black/6 mice (Charles Rivers) of 7-10 weeks old were sensitized epicutaneously with 150 μl 3% 4-ethoxymeyhylene-2-phenyl-oxazolin-5-one (oxazolone; Sigma) in 100% ethanol. At day 5, mice were challenged, under anesthesia of ketamine (80 mg/kg) and xylazine (10 mg/kg), by rectal administration of 100 μl 2% oxazolone in aqueous ethanol (50%). Twenty minutes prior to challenge mice were treated intra-rectally with 100 μl saline (control) or PI (2 mg/ml). All […] groups contained 8 mice. Mice were weighted at day 5, 6, 7, and 8 and were sacrificed at day 8.
Colonic tissue was fixed with 4% natural buffered formalin solution, embedded in paraffin, cut into 5μ tissue sections, and stained with hematoxylin and eosin (H&E). Using a score that has been described previously for oxazolone colitis (REF), the stained sections were examined for evidence of colitis. Spleen, axillary lymph nodes (ALN), mesenteric lymph nodes (MLN) and iliacal lymph nodes (ILN) were isolated and stimulated ex-vivo with either PBS (control) or with aCD3/aCD28 (100 μl of 2 μg/ml each) in IMDM medium. After 48 and 72 hours, the production of IL-2 was measured by means of ELISA (Beckton & Dickinson).

For data set [1], the system named is activated peripheral blood cells. The note with it: Caselli et al. 1992; cited from earlier work.
The nature of data set [2]: Observation after intravenous PI. It counts as in vivo, mice. The note with it: 200 μl of PI 2 mg/ml (400 μg) intravenously, 3 hour observation period. From the text:
It will be recognized by those skilled in the art that the optimal quantity and spacing of individual dosages for achieving the therapeutic effects of the pharmaceutical composition, food item or food supplement described herein may easily be determined by the skilled person. They will be determined by the nature and extent of the condition being treated, as well as by the form, route and site of administration, and the particular individual undergoing treatment, and that such optima can be determined by conventional techniques. Typically, the treatment will involve the administration of inositol phospholipid in amount of approximately 0.001 to 1 gram , preferably 0.005 to 0.5 gram, more preferably 0.01 to 0.1 gram per kilogram of body weight per 24 hours. It will also be appreciated by those skilled in the art that the optimal dosage regimen, i.e. the number of doses, can be ascertained using conventional course of treatment determination tests well known in the art. […] Generally speaking, a therapeutic dosing regimen will involve the administration of the selected dosage formulation comprising an inositol phospholipid, e.g. a PI aerosol spray, at least once daily, preferably one to four times daily, until the symptoms have subsided. Or given in times of remission, in order to prevent a disease flare-up (exacerbation). […]

Data set [3] relates to T cells. Briefly: Cellular viability of T cells (flow cytometric 7-AAD detection). It counts as cell-based. The settings on record: FIG. 3A. The procedure:
(§1) A CD1d transfected epithelial cell line T84D was pulsed with alpha-GalactosylCeramide and co-cultured with PI at different concentrations. NKT cell activation was determined by measurement of IL-2 present in the supernatants. FIG. 2: Phosphatidyl-inositol but not myo-inositol blocks CD1d dependent NKT cell activation. A CD1d transfected epithelial cell line T84D was pulsed with a GalactosylCeramide and co-cultured with either solvent control, PI or myo-inositol. NKT cell activation was determined by measurement of IL-2 present in the supernatants. FIG. 3: Differential effect of PI and PS on cellular viability and immune suppression. T cells were suspended at 10^6 cells/ml in 24-wells plates (1 ml suspension per well). Cells were either left untreated (PMA 0 Cal 0) or activated with 5 ng/ml PMA +0.1 μg/ml calcium ionophore A23187 (PMA 5 ng/ml Cal 0.1 ug/ml) in the presence of PI or PS at the indicated concentrations (expressed in pg/ml). Panel A: Following a 24 hour incubation period in the presence of the indicated lipids and stimuli cellular viability was measured using flow cytometric detection of 7-AAD stained cells. […] FIG. 4: IPL strongly affects early survival in oxazolone colitis model. For experimental details see Example 2A. FIG. 5: Suppression of IL-2 production by intestinal T cells upon IPL intrarectal treatment of oxazolone-colitis mice. Mice were treated with saline (group A) or PI (group B) twenty minutes prior to challenge with oxazolone to induce colitis. Mice were sacrificed and intestinal T cells were analyzed for IL-2 production upon stimulation by aCD3/aCD28 during a period of 48 hours (panel A) or 72 hours (panel B). ALN=axillair LN; MLN=mediastinal LN; ILN=iliacal LN. For further details see Example 2A. FIG. 6: Treatment with IPL (non-liposomal aerosol) prevents the typical histo-pathological changes that are associated with an asthma mouse model. For experimental details see Example 2B. […] C Histopathology of the whole colon was assessed by blindly scoring each separate field of view at a 4× magnification by means of a TNBS score. […]

The test system of another data set is OVA-induced asthma. Kind of data set: OVA asthma model, intra-tracheal PI. The note with it: PI intra-tracheally before OVA aerosol challenge. The data set is classed as in vivo, mice. On the procedure: On days one and eight male wildtype Balb/c mice (Charles Rivers) of 7-10 weeks old were sensitized by intra-peritoneal (i.p.) injection of 20 μg of OVA (Sigma), emulsified in 2.25 mg of alum (AlumImuject; Pierce). On days 15, 16 and 17 mice were sedated and received 80 μl of one of three solutions of PI (0 μg/ml, 200 μg/ml or 2 mg/ml) intra-tracheally (i.t). Subsequently the mice were challenged by 20 minutes of inhalation exposure to 60 μl of aerosols containing OVA (1% in saline). All three groups contained 8 mice. Mice were sacrificed at day 18.
Lungs were flushed with 3 ml saline and the cells in this Broncho Alveolar Lavage (BAL) were identified and quantified through FACS analysis. Subsequently the lungs were freeze-fixed, cut into 5 μm tissue sections and stained with May-Grunwald-Giemsa (MGG). The stained sections were examined for the presence of inflammatory cell infiltration such as eosinophils.

Data set [4] concerns DN32 cells (NKT cell line) co-cultured with CD1d transfected T84D cells. Briefly: CD1d-restricted NKT cell activation (T84D/DN32 co-culture, IL-2 ELISA). The settings on record: for CD1d dependent NKT cell activation (IL-2 present in the supernatants): solvent control, PI or myo-inositol, FIG. 2. The data set is classed as cell-based, murine. On the procedure:
as §1, with “B).” for “B). ALN=axillair LN; MLN=mediastinal LN; ILN=iliacal LN. For further details see Example 2A. FIG. 6: Treatment with IPL (non-liposomal aerosol) prevents the typical histo-pathological changes that are associated with an asthma mouse model. For experimental details see Example 2B.”
On day 0, T84D cells (a human epithelial cell line transfected with CD1d) were incubated overnight with a GalCer (10 mg/ml). […] Supernatants were collected and IL-2 cytokine production by DN32 (reflecting T cell activation) was determined by means of ELISA.
In general terms: In an ELISA, binding on a coated surface is turned into a signal by an enzyme label.

For the next data set, the system named is TNBS colitis. Briefly: TNBS colitis model, intraperitoneal PI. It counts as in vivo, mice. The procedure: Colitis was induced as described previously (Scheiffele, F. and Fuss, I J., 2001, Curr. Protocols Immunol. 15.19.1-15.19.14). In short, on day-7 SJL mice were sensitized epicutaneously with 150 μl 2.5% 2,4,6-trinitrobenzene sulfonic acid (TNBS; Sigma) in 50% ethanol. On day 0, mice were challenged, under anesthesia of isoflurane gas, by rectal administration of 150 μl 2.5% TNBS in 50% ethanol. Negative control mice were challenged with 50% ethanol only. […] Positive (TNBS treated) and negative (ethanol treated) control mice were treated with an intraperitoneal (i.p.) injection of 150 μl of saline at 0, 12, 24, 36, 48 and 60 h. The PI treatment group was treated with […] of 5 mg/ml PI suspended in saline at the same time points. Mice were weighted at 0, 12, 24, 36, 48 and 60 h and were sacrificed at 60 h. Colonic tissue was folded into Swiss rolls, fixed in 4% natural buffered formalin solution and embedded in paraffin. Sections of 5 μm thickness were generated, stained with hematoxylin (Vector Laboratories) and eosin (Sigma) and analyzed by microscopy. Histology was quantified by scoring each separate field of view at a 4× magnification from distal to proximal by means of a previously described TNBS scoring system (Scheiffele, F. and Fuss, I J., 2001, Curr. Protocols Immunol. 15.19.1-15.19.14). Single cell suspensions were made of iliac lymph nodes (ILNs) and mesenteric lymph nodes (MLNs) by sieving trough an 80 μm filter and subsequently lymphocytes were cultured and stimulated with 2 μg/ml anti-CD3 and 2 μg/ml anti-CD28 antibodies. After 48 h of culture the supernatant was collected and release of the pro-inflammatory cytokines IFN-γ and IL-17 (Zhang, Z. et al., 2006, Inflamm. Bowel Dis., 12:382-388) and the anti-inflammatory cytokine IL-10 were measured by means of ELISA (IL-17) or CBA (IFN-γ and IL-10).

Data set [5] has as its system T cells. Kind of data set: T cell activation measured by IL-2 cytokine production. It counts as cell-based. The settings on record: for T cell activation measured by IL-2 cytokine production: PMA + calcium ionophore A23187. The procedure: as §1, with “2B. FIG. 7: Treatment with PI (aerosol) prevents the eosinophilia that is associated with an asthma mouse model. For experimental details see Example 2B. FIG. 8: effects of intraperitoneal injection of PI in the TNBS colitis model. […] B The percentage of weight during TNBS colitis is shown. Each dot represents the mean of weights of each group per 0.5 day. Error bars indicate the standard error of the mean. Asterisks indicate significant differences (p<0.05) between TNBS treated mice that received i.p. injections of PI and saline.” for “2B.”

The mark [6] stands for this setting: 24 hour incubation, untreated or 5 ng/ml PMA + 0.1 μg/ml A23187.
Setting [7] is: anti-CD3/anti-CD28 re-stimulation, 48 h, vs saline treated group, p<0.05, FIG. 8D.

On to phosphatidyl inositol [PI], for which the weight loss result was “diminished weight loss” in the data set on oxazolone colitis (100 μl PI 2 mg/ml intra-rectally 20 min prior to oxazolone challenge) and “dramatic reduction in weight loss” in the data set with TNBS colitis (PI i.p. vs control saline treatment, FIG. 8B). For the same molecule, the survival entry in the data set on oxazolone colitis (100 μl PI 2 mg/ml intra-rectally 20 min prior to oxazolone challenge, FIG. 4) is on record as “increased survival”. In addition, the “IL-2 production upon ex-vivo stimulation of intestinal T cells” value in the data set with oxazolone colitis (aCD3/aCD28 stimulation, 48 and 72 hours, FIG. 5) is recorded as “suppressed”. For the same molecule, the “DNA synthesis in activated peripheral blood cells” value in data set [1] is given as “only partially effective”. Moreover, in data set [2], the “symptoms or adverse signs” value is “did not show any symptoms or adverse signs”. Further, the cellular viability result in the data set with T cells [3] (setting [6]) was “does not significantly affect cellular viability”; with T cells [3] (up to the highest dose tested (100 μg/ml)), “does not affect cellular viability”. In the data set on OVA-induced asthma (FIG. 6), the “histopathological changes of the lungs” value is “reduces”. Moreover, the “influx of eosinophils (BAL)” value in the data set on OVA-induced asthma (FIG. 7) was “strongly inhibits”. Also, the “NKT cell activation (IL-2 present in the supernatants)” value in data set [4] (T84D pulsed with alpha-GalactosylCeramide, PI at different concentrations, FIG. 1) is on record as “Dose-dependent inhibition”. Moreover, in data set [4], the “CD1d dependent NKT cell activation (IL-2 present in the supernatants)” value is listed as “blocks”. Further, the “general appearance (fur, behavior)” value in the data set with TNBS colitis (PI 5 mg/ml i.p. every 12 h vs saline, FIG. 8A) is “appeared less diseased”. Also, the “start of weight recovery” value in the data set on TNBS colitis (PI i.p., saline treated mice did not re-gain weight, FIG. 8B) was found to be 1.5 days. The IL-10 production result in the data set on TNBS colitis (anti-CD3/anti-CD28 re-stimulation, 48 h, vs saline treated group, FIG. 8D) is “no difference”. For the same molecule, the “IFN-γ production by MLNs” value in the data set on TNBS colitis (setting [7]) was “significantly less production”. Moreover, the “IL-17 production by ILNs and MLNs” value with TNBS colitis (setting [7]) was “significantly less production”. Besides, in the data set on TNBS colitis (day 3, field of view number 5, FIG. 8C), the “colon histology (TNBS score)” value was “near normal histology”. Besides, the “T cell activation measured by IL-2 cytokine production” value with T cells [5] (FIG. 3B) is “inhibitory effect”. Moreover, the “reversibility of the suppressive effect” value in the data set with T cells [5] (data not shown) is given as “reversible”. The T cell activation entry in the data set with T cells [5] (phorbol ester and calcium ionophore, or stimulation of CD3 and CD28, FIG. 3B) is “directly inhibit”.
Turning to `O[C@H]1[C@H](O)[C@@H](O)[C@H](O)[C@@H](O)[C@H]1O` [myo-inositol, reference compound], in data set [4], the “CD1d dependent NKT cell activation (IL-2 present in the supernatants)” value is “no significant suppressive effect”.
Consider “phosphatidyl serine [PS, reference compound]”, for which the “DNA synthesis in activated peripheral blood cells” value in data set [1] was “inhibition”. Also, the cellular viability result with T cells [3] (setting [6]) was “toxic for activated cells in a dose-dependent manner”. Further, in the data set with T cells [5] (FIG. 3B), the “T cell activation measured by IL-2 cytokine production” value is recorded as “stimulatory effect”.
